Test results published in PubChem BioAssay AID1963861 (Molecular Pharmacology Branch, DTP, NCI, 2024).

System: 885724-159-R-J1-PDC KRAS PDC multicell spheroid viability
Experiment: Anticancer human tumor 885724-159-R-J1-PDC patient-derived pancreatic adenocarcinoma cell line growth inhibition [KRAS2]
Conditions: for IC50: curve of first compound; for viability, T/C: stronger effect = lower value
Summary of the method: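 Combination screen of spheroid viability in tumor-cell co-cultures with endothelial (HUVEC) and mesenchymal stem cell stroma. Each agent was tested in half-log dilutions, topping at clinical Cmax or at 10 microM without a known Cmax.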

[1] = second compound 0.0316 µM, first compound 0.0316 µM
[2] = second compound 0.0316 µM, first compound 0.1 µM
[3] = second compound 0.0316 µM, first compound 0.316 µM
[4] = second compound 0.0316 µM, first compound 1 µM
[5] = second compound 0.0316 µM, first compound 3.16 µM
[6] = second compound 0.1 µM, first compound 0.01 µM
[7] = second compound 0.1 µM, first compound 0.0316 µM
[8] = second compound 0.1 µM, first compound 0.1 µM
[9] = second compound 0.1 µM, first compound 0.316 µM
[10] = second compound 0.1 µM, first compound 1 µM
[11] = second compound 0.1 µM, first compound 3.16 µM
[12] = second compound 0.316 µM, first compound 0.01 µM
[13] = second compound 0.316 µM, first compound 0.0316 µM
[14] = second compound 0.316 µM, first compound 0.1 µM
[15] = second compound 0.316 µM, first compound 0.316 µM
[16] = second compound 0.316 µM, first compound 1 µM
[17] = second compound 0.316 µM, first compound 3.16 µM
[18] = second compound 1 µM, first compound 0.01 µM
[19] = second compound 1 µM, first compound 0.0316 µM
[20] = second compound 1 µM, first compound 0.1 µM
[21] = second compound 1 µM, first compound 0.316 µM
[22] = second compound 1 µM, first compound 1 µM
[23] = second compound 1 µM, first compound 3.16 µM
[24] = second compound 3.16 µM, first compound 0.01 µM
[25] = second compound 3.16 µM, first compound 0.0316 µM
[26] = second compound 3.16 µM, first compound 0.1 µM
[27] = second compound 3.16 µM, first compound 0.316 µM
[28] = second compound 3.16 µM, first compound 1 µM
[29] = second compound 3.16 µM, first compound 3.16 µM
[30] = second compound 0.0316 µM, first compound 10 µM
[31] = second compound 0.1 µM, first compound 10 µM
[32] = second compound 0.316 µM, first compound 10 µM
[33] = second compound 1 µM, first compound 10 µM
[34] = second compound 3.16 µM, first compound 10 µM
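Further: spheroids exposed to agents for 7 days before readout.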

| Compound | IC50 (second compound 0.1 µM) [nM] | IC50 (second compound 0.316 µM) [nM] | IC50 (second compound 1 µM) [nM] | IC50 (second compound 3.16 µM) [nM] | viability, T/C [7] [%] | viability, T/C [8] [%] | viability, T/C [9] [%] | viability, T/C [10] [%] | viability, T/C [11] [%] | viability, T/C [13] [%] | viability, T/C [14] [%] | viability, T/C [15] [%] | viability, T/C [16] [%] | viability, T/C [17] [%] | viability, T/C [19] [%] | viability, T/C [20] [%] | viability, T/C [21] [%] | viability, T/C [22] [%] | viability, T/C [23] [%] | viability, T/C [25] [%] | further results |
| --- | --- | --- | --- | --- | --- | --- | --- | --- | --- | --- | --- | --- | --- | --- | --- | --- | --- | --- | --- | --- | --- |
| CC1COCCN1c1cc(-c2ccnn2C)c2ccnc(-c3ccn[nH]3)c2n1 (stereo not given) + C=CC(=O)N1CCN(c2nc(OCC3CCCN3C)nc3c2CCN(c2cccc4cccc(C)c24)C3)CC1CC#N | 909 | 723 | 298 | 17 | 83.7 | 65.5 | 54.5 | 45.8 | 51.2 | 74.6 | 60.8 | 54.6 | 46.4 | 47.8 | 76.3 | 59.7 | 51.5 | 41.6 | 42.4 | 46.5 | IC50 (second compound 0.0316 µM): 1790 nM; viability, T/C (second compound 0.0316 µM, first compound 0.01 µM): 102%; viability, T/C [1]: 77.8%; viability, T/C [2]: 64.8%; viability, T/C [3]: 58.8%; viability, T/C [4]: 48.8%; viability, T/C [5]: 49.3%; viability, T/C [6]: 103%; viability, T/C [12]: 95%; viability, T/C [18]: 85%; viability, T/C [24]: 53.4%; viability, T/C [26]: 37.2%; viability, T/C [27]: 33.5%; viability, T/C [28]: 25.4%; viability, T/C [29]: 23.4% |
| CC1OCC2(CCN(c3cnc(Sc4ccnc(N)c4Cl)c(N)n3)CC2)C1N (stereo not given) + C=CC(=O)N1CCN(c2nc(OCC3CCCN3C)nc3c2CCN(c2cccc4cccc(C)c24)C3)CC1CC#N | > 10000 | > 10000 | 9450 | < 31.6 | 103 | 89.8 | 71.6 | 69.6 | 63.4 | 94 | 84.7 | 70.5 | 67.9 | 60.2 | 79.4 | 73.4 | 64 | 56.2 | 56.8 | 46 | IC50 (second compound 0.0316 µM): > 10000 nM; viability, T/C [1]: 97%; viability, T/C [2]: 85.7%; viability, T/C [3]: 76.6%; viability, T/C [4]: 68.4%; viability, T/C [5]: 69.7%; viability, T/C [30]: 56.6%; viability, T/C [31]: 61.6%; viability, T/C [32]: 57.3%; viability, T/C [33]: 48.6%; viability, T/C [26]: 40.2%; viability, T/C [27]: 36.1%; viability, T/C [28]: 33.6%; viability, T/C [29]: 35.1%; viability, T/C [34]: 27.1% |
| Cn1nccc1Nc1nccc(-c2cc3c(s2)C(C)(C)N(CCN2CCOCC2)C3=O)n1 + C=CC(=O)N1CCN(c2nc(OCC3CCCN3C)nc3c2CCN(c2cccc4cccc(C)c24)C3)CC1CC#N | 506 | 315 | 421 | < 31.6 | 97.5 | 78.4 | 58 | 39.5 | 32.8 | 87.2 | 72.8 | 48.2 | 38.2 | 31.4 | 75.5 | 69.4 | 55 | 36.1 | 29.6 | 45.8 | IC50 (second compound 0.0316 µM): 601 nM; viability, T/C [1]: 98.1%; viability, T/C [2]: 81%; viability, T/C [3]: 57.7%; viability, T/C [4]: 43.8%; viability, T/C [5]: 34%; viability, T/C [30]: 29.6%; viability, T/C [31]: 31.8%; viability, T/C [32]: 29.2%; viability, T/C [33]: 28.2%; viability, T/C [26]: 32.2%; viability, T/C [27]: 25.5%; viability, T/C [28]: 18.1%; viability, T/C [29]: 14.7%; viability, T/C [34]: 9.26% |
| CC(=O)OC12COC1CC(O)C1(C)C(=O)C(O)C3=C(C)C(OC(=O)C(O)C(NC(=O)OC(C)(C)C)c4ccccc4)CC(O)(C(OC(=O)c4ccccc4)C21)C3(C)C (stereo not given) + CC1OCC2(CCN(c3cnc(Sc4ccnc(N)c4Cl)c(N)n3)CC2)C1N | > 3160 | > 3160 | > 3160 | > 3160 | 110 | 108 | 117 | 122 | 121 | 100 | 109 | 114 | 128 | 116 | 120 | 126 | 122 | 135 | 138 | 86.7 | IC50 (second compound 10 µM): > 3160 nM; viability, T/C [6]: 103%; viability, T/C [12]: 99.7%; viability, T/C [18]: 112%; viability, T/C [24]: 76.2%; viability, T/C [26]: 88.9%; viability, T/C [27]: 93.6%; viability, T/C [28]: 97.2%; viability, T/C [29]: 97.8%; viability, T/C (second compound 10 µM, first compound 0.01 µM): 77.6%; viability, T/C (second compound 10 µM, first compound 0.0316 µM): 84.5%; viability, T/C (second compound 10 µM, first compound 0.1 µM): 87.4%; viability, T/C (second compound 10 µM, first compound 0.316 µM): 95.5%; viability, T/C (second compound 10 µM, first compound 1 µM): 91.5%; viability, T/C (second compound 10 µM, first compound 3.16 µM): 103% |
